This is an account of results in patent US6444251B1, “Sweetener compositions containing aspartame and aspartame derivative” (Ajinomoto Co., Inc., priority 1997, dated 2002).

A short description of assay [1]: Quality of sweetness (early taste, later taste, astringency) in comparison to sucrose. To be noted: for early taste / later taste: determined in comparison to sucrose. How it is done: Early taste and late taste are determined in comparison to sucrose. For example, a sweetener, when put in the mouth, can taste sweet as early as sucrose or later than sucrose.
The conditions of assay [2]: cited from earlier work; for sweetening potency: relative to sucrose.

The structures appear in SMILES notation. Residues, ends and D or L forms follow the SMILES beside them.

Take `COC(=O)[C@H](Cc1ccccc1)NC(=O)[C@H](CC(=O)O)NCCC(C)(C)C` [N-(3,3-dimethylbutyl)-APM, N-[N-(3,3-dimethylbutyl)-L-α-aspartyl]-L-phenylalanine methyl ester]: in assay [1], the “astringency (astringent taste)” value is “strong in astringency”, the early taste entry is given as “extremely weak” and the later taste result is on record as “extremely strong”. Further, the quality of sweetness result in assay [1] (compared to sucrose / single ingredients) is “badly balanced”. In assay [2] (as shown in French Patent No. 2697844), the “sweetening potency (in words)” value is on record as “markedly improved sweetening potency”. Further, in assay [2], the sweetening potency is 10,000 times that of sucrose.
As for `COC(=O)[C@H](Cc1ccccc1)NC(=O)[C@@H](N)CC(=O)O` [APM, aspartame] (H-Asp-Phe-OMe), in assay [1], the early taste result is given as “weak in early taste” and the later taste entry was “strong in later taste”. Also, the sweetening potency result in assay [2] is reported as “about 200 times that of sucrose”.
